Data reported in patent US20100137275A1 (IPSEN PHARMA S.A.S., priority 2007, published 2010).
Each block holds one compound with its values, some of them ahead of it.

Key:
[1] = system: DU145 (human prostate cancer cells); test: Anti-proliferative activity on DU-145 cell line (WST1 colorimetric test); format: cell-based; conditions: DU-145, 96 h, 96 hours treatment, read-out: IC50 on the proliferation of the DU-145 cell line
Protocol: (§1) By way of an example, the effect of treating two human cell lines Mia-Paca2 and DU145 with the compounds of the examples described hereinbefore will be studied. The cell lines DU145 (human prostate cancer cells) and Mia-PaCa2 (human pancreas cancer cells) were obtained from the American Tissue Culture Collection (Rockville, Md., USA). A 96-well plate was inoculated on day 0 with cells placed in 80 μl of Dulbecco's modified Eagle's medium (Gibco-Brl, Cergy-Pontoise, France) with 10% heat-inactivated foetal calf serum (Gibco-Brl, Cergy-Pontoise, France), 50000 units/1 of penicillin and 50 mg/l of streptomycin (Gibco-Brl, Cergy-Pontoise, France), and 2 mM of glutamine (Gibco-Brl, Cergy-Pontoise, France). The cells were treated on day 1 with increasing concentrations of each test compound up to 10 μM for 96 hours. At the end of this period, cell proliferation is quantified by means of a colorimetric test based on cleavage of the tetrazolium salt WST1 by the mitochondrial dehydrogenases in the viable cells, resulting in formation of formazan (Boehringer Mannheim, Meylan, France). These tests are performed in duplicate with 8 determinations per concentration tested. For each compound to be tested, the values within the linear part of the sigmoid curve were subjected to linear regression analysis and used to estimate the IC50 inhibitory concentration. The products are solubilised in dimethylsulfoxide (DMSO) at a concentration of 10^−2 M and used in culture with a final DMSO concentration of 0.1%.

[2] = target: T1, purified recombinant Cdc25-C enzyme (MBP-Cdc25C protein) (Homo sapiens, UniProt P30307); test: Phosphatase activity of the purified recombinant Cdc25C enzyme (OMFP dephosphorylation, fluorescence); format: biochemical; conditions: OMFP 500 μM, 4 hours at 30° C.
T1 construct: made in house
T1 sequence (P30307 1-473): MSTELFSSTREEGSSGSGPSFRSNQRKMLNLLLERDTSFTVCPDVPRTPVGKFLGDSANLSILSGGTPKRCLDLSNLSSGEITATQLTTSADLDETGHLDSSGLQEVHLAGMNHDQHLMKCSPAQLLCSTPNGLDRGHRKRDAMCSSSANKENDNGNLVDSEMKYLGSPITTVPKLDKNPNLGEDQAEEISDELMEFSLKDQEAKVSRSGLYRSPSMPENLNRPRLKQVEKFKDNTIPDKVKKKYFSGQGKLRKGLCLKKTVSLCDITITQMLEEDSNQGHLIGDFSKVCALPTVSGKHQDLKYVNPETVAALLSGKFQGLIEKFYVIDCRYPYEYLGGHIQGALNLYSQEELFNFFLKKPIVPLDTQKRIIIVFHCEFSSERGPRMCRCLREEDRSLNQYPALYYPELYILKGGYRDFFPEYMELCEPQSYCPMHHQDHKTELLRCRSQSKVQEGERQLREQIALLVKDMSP
Protocol: The phosphatase activity of the MBP-Cdc25C protein is evaluated through its dephosphorylation of 3-O-methylfluorescein-phosphate (OMFP) to form 3-O-methylfluorescein (OMF), determining the fluorescence of the reaction product at 475 nm. This assay can be used to identify inhibitors of the recombinant Cdc25 enzyme. The preparation of the MBP-Cdc25C fusion protein is described in patent application PCT WO 01/44467.
The reaction is performed in 384-well plates in a final volume of 50 μl. The MBP-Cdc25C protein (prepared as described hereinabove) is stored in the following elution buffer: 20 mM Tris-HCl pH 7.4; 250 mM NaCl; 1 mM EDTA; 1 mM dithiothreitol (DTT); 10 mM maltose. It is diluted to a concentration of 60 μM in the following reaction buffer: 50 mM Tris-HCl pH 8.2; 50 mM NaCl; 1 mM DTT; 20% glycerol. The background noise is determined using with the buffer without addition of the enzyme. The products are tested at decreasing concentrations from 40 μM. The reaction is initiated by the addition of a solution OMFP to a final concentration of 500 μM (prepared immediately before use from a 12.5 mM stock solution in 100% DMSO (Sigma #M2629)). After 4 hours at 30° C. in a disposable 384-well plate, the fluorescence measured at OD 475 nm is read on a Victor^2 plate reader (EGG-Wallac). The concentration that produces 50% inhibition of the enzyme reaction is calculated from three independent experiments. Only the values that fall within the linear part of the sigmoid curve are used for the linear regression analysis.

[3] = system: Mia-PaCa2 (human pancreas cancer cells); test: Anti-proliferative activity on Mia-Paca2 cell line (WST1 colorimetric test); format: cell-based; conditions: MIA PaCa-2, 96 h, 96 hours treatment, read-out: IC50 on proliferation of the Mia-Paca2 cell line
Protocol: as §1

Compound: CN(CCNC(=S)NCc1ccco1)CCNc1cc(N2CCCC2)nc(N2CCCC2)n1 [Example 29, N-{2-[{2-[(2,6-dipyrrolidin-1-ylpyrimidin-4-yl)amino]ethyl}(methyl)amino]ethyl}-N′-(2-furylmethyl)thiourea]
IC50 [1]: ≤ 5 µM
IC50 [2]: ≤ 5 µM
IC50 [3]: ≤ 5 µM

Compound: CC(Oc1ccccc1)C(=O)NCCN(C)CCNc1cc(N2CCCC2)nc(N2CCCC2)n1 (stereo not shown) [Example 84, N-{2-[{2-[(2,6-dipyrrolidin-1-ylpyrimidin-4-yl)amino]ethyl}(methyl)amino]ethyl}-2-phenoxypropanamide]
IC50 [2]: ≤ 5 µM
IC50 [3]: ≤ 5 µM
melting point: 110 to 112 °C

Compound: CN(CCNC(=S)Nc1cccnc1)CCNc1cc(N2CCCC2)nc(N2CCCC2)n1 [Example 26, N-{2-[{2-[(2,6-dipyrrolidin-1-ylpyrimidin-4-yl)amino]ethyl}(methyl)amino]ethyl}-N′-pyridin-3-ylthiourea]
IC50 [2]: ≤ 1 µM
IC50 [3]: ≤ 5 µM
melting point: 107 to 109 °C

Compound: CN(CCCNC(=O)Nc1ccc(Cl)c(C(F)(F)F)c1)CCCNc1cc(N2CCCC2)nc(N2CCCC2)n1 [Example 21, N-[4-chloro-3-(trifluoromethyl)phenyl]-N′-{3-[{3-[(2,6-dipyrrolidin-1-ylpyrimidin-4-yl)amino]propyl}(methyl)amino]propyl}urea]
IC50 [1]: ≤ 5 µM
IC50 [2]: ≤ 5 µM
IC50 [3]: ≤ 5 µM

Compound: CN(CCNC(=S)Nc1ccc(-c2cnco2)cc1)CCNc1cc(N2CCCC2)nc(N2CCCC2)n1 [Example 33, N-{2-[{2-[(2,6-dipyrrolidin-1-ylpyrimidin-4-yl)amino]ethyl}(methyl)amino]ethyl}-N′-[4-(1,3-oxazol-5-yl)phenyl]thiourea]
IC50 [1]: ≤ 5 µM
IC50 [2]: ≤ 5 µM
melting point: 104 to 106 °C

Compound: CN(CCNC(=S)Nc1cccc2ccccc12)CCNc1cc(N2CCCC2)nc(N2CCCC2)n1 [Example 37, N-{2-[{2-[(2,6-dipyrrolidin-1-ylpyrimidin-4-yl)amino]ethyl}(methyl)amino]ethyl}-N′-1-naphthylthiourea]
IC50 [1]: ≤ 5 µM
IC50 [2]: ≤ 5 µM
melting point: 87 to 89 °C

Compound: CN(CCNC(=S)Nc1ccc(Oc2ccccc2)cc1)CCNc1cc(N2CCCC2)nc(N2CCCC2)n1 [Example 36, N-{2-[{2-[(2,6-dipyrrolidin-1-ylpyrimidin-4-yl)amino]ethyl}(methyl)amino]ethyl}-N′-(4-phenoxyphenyl)thiourea]
IC50 [1]: ≤ 5 µM
IC50 [2]: ≤ 5 µM
melting point: 79 to 81 °C

Compound: COc1ccc(NC(=S)NCCN(C)CCNc2cc(N3CCCC3)nc(N3CCCC3)n2)cc1 [Example 35, N-{2-[{2-[(2,6-dipyrrolidin-1-ylpyrimidin-4-yl)amino]ethyl}(methyl)amino]ethyl}-N′-(4-methoxyphenyl)thiourea]
IC50 [1]: ≤ 5 µM
IC50 [2]: ≤ 5 µM
melting point: 127 to 129 °C

Compound: CN(CCNc1cc(N2CCCC2)nc(N2CCCC2)n1)CCNS(=O)(=O)c1ccc([N+](=O)[O-])cc1 [Example 87, N-{2-[{2-[(2,6-dipyrrolidin-1-ylpyrimidin-4-yl)amino]ethyl}(methyl)amino]ethyl}-4-nitrobenzenesulfonamide]
IC50 [2]: ≤ 1 µM
IC50 [3]: ≤ 5 µM
melting point: 144 to 145 °C

Compound: CCNc1cc(NCCN(C)CCNC(=S)Nc2ccc(Cl)cc2)nc(NCC)n1 [Example 79, N-{2-[(2-{[2,6-bis(ethylamino)pyrimidin-4-yl]amino}ethyl)(methyl)amino]ethyl}-N′-(4-chlorophenyl)thiourea]
IC50 [3]: ≤ 5 µM
melting point: 142 to 144 °C

Compound: CN(CCNC(=O)C1CCN(c2nccc(C(F)(F)F)n2)CC1)CCNc1cc(N2CCCC2)nc(N2CCCC2)n1 [Example 86, N-{2-[{2-[(2,6-dipyrrolidin-1-ylpyrimidin-4-yl)amino]ethyl}(methyl)amino]ethyl}-1-[4-(trifluoromethyl)pyrimidin-2-yl]piperidine-4-carboxamide]
IC50 [2]: ≤ 5 µM
IC50 [3]: ≤ 5 µM
melting point: 171 to 173 °C

Compound: CN(CCNC(=S)Nc1ccc(C(C)(C)C)cc1)CCNc1cc(N2CCCC2)nc(N2CCCC2)n1 [Example 44, N-(4-tert-butylphenyl)-N′-{2-[{2-[(2,6-dipyrrolidin-1-ylpyrimidin-4-yl)amino]ethyl}(methyl)amino]ethyl}thiourea]
IC50 [1]: ≤ 5 µM
IC50 [2]: ≤ 1 µM
melting point: 192 to 194 °C

Compound: CN(CCNC(=O)c1cccc2c1-c1ccccc1C2=O)CCNc1cc(N2CCCC2)nc(N2CCCC2)n1 [Example 85, N-{2-[{2-[(2,6-dipyrrolidin-1-ylpyrimidin-4-yl)amino]ethyl}(methyl)amino]ethyl}-9-oxo-9H-fluorene-4-carboxamide]
IC50 [2]: ≤ 5 µM
IC50 [3]: ≤ 5 µM
melting point: 139 to 140 °C

Next, values leading:

IC50 [1]: ≤ 5 µM
IC50 [3]: ≤ 5 µM
melting point: 127 to 129 °C
Compound: CN(CCNC(=S)Nc1ccc(N(C)C)cc1)CCNc1cc(N2CCCC2)nc(N2CCCC2)n1 [Example 76, N-[4-(dimethylamino)phenyl]-N′-{2-[{2-[(2,6-dipyrrolidin-1-ylpyrimidin-4-yl)amino]ethyl}(methyl)amino]ethyl}thiourea]

IC50 [2]: ≤ 5 µM
IC50 [3]: ≤ 5 µM
Compound: CN(C)CCN(C)c1cc(NCCN(C)CCNC(=S)Nc2ccc(Cl)cc2)nc(N(C)CCN(C)C)n1 [Example 64, N-{2-[[2-({2,6-bis[[2-(dimethylamino)ethyl](methyl)amino]pyrimidin-4-yl}amino)ethyl](methyl)amino]ethyl}-N′-(4-chlorophenyl)thiourea]

IC50 [1]: ≤ 5 µM
IC50 [2]: ≤ 1 µM
melting point: 67 to 69 °C
Compound: CSc1ccc(NC(=S)NCCN(C)CCNc2cc(N3CCCC3)nc(N3CCCC3)n2)cc1 [Example 51, N-{2-[{2-[(2,6-dipyrrolidin-1-ylpyrimidin-4-yl)amino]ethyl}(methyl)amino]ethyl}-N′-[4-(methylthio)phenyl]thiourea]

IC50 [1]: ≤ 5 µM
IC50 [2]: ≤ 5 µM
melting point: 118 to 120 °C
Compound: CN(CCNC(=S)Nc1ccc(OC(F)(F)F)cc1)CCNc1cc(N2CCCC2)nc(N2CCCC2)n1 [Example 23, N-{2-[{2-[(2,6-dipyrrolidin-1-ylpyrimidin-4-yl)amino]ethyl}(methyl)amino]ethyl}-N′-[4-(trifluoromethoxy)phenyl]thiourea]

IC50 [1]: ≤ 5 µM
IC50 [2]: ≤ 1 µM
melting point: 133 to 135 °C
Compound: CN(CCNC(=O)Nc1cccs1)CCNc1cc(N2CCCC2)nc(N2CCCC2)n1 [Example 10, N-{2-[{2-[(2,6-dipyrrolidin-1-ylpyrimidin-4-yl)amino]ethyl}(methyl)amino]ethyl}-N′-2-thienylurea]

IC50 [1]: ≤ 5 µM
IC50 [2]: ≤ 1 µM
melting point: 76 to 78 °C
Compound: CN(CCNC(=S)Nc1ccc(Cl)cc1)CCNc1cc(N2CCCCC2)nc(N2CCCCC2)n1 [Example 69, N-(4-chlorophenyl)-N′-{2-[{2-[(2,6-dipiperidin-1-ylpyrimidin-4-yl)amino]ethyl}(methyl)amino]ethyl}thiourea]
